Reference: US20230391828A1, “REGULATORS OF CELL DIVISION” (TECHNISCHE UNIVERSITÄT DRESDEN, priority 2020, published 2023)
“Also recorded” adds a separate entry of the source. Bridge positions count the residues as written; N and C are the ends. Square brackets hold non-standard residues; d marks the D form. 2Nal = N[C@@H](Cc1ccc2ccccc2c1)C(=O)O; R8 = C=CCCCCCC[C@@](C)(N)C(=O)O; S5 = C=CCCC[C@](C)(N)C(=O)O; Pra = C#CC[C@H](N)C(=O)O

Columns and labels:
APC/C = biological target: T1, APC/C (Homo sapiens, UniProt Q9NYG5); test: In vitro APC/C ubiquitination assay driven by the E2 enzyme UBE2C, fluorophore-labelled securin substrate; assay type: biochemical; conditions: 100 μM, UBE2C, reaction time 45 min
T1 construct: made in house; host or cells: SF9 insect cells (baculovirus)
Procedure: Proteins were separated by SDS-PAGE electrophoresis using precast Bolt 4-12% Bis-Tris Plus protein gels (Thermo Fisher Scientific) and Criterion XT Bis-Tris Midi Protein Gels (Bio-Rad). In different experiments, various conditions were used: in vitro APC/C ubiquitination assays—165 V, 40 min, SDS-MES running buffer (50 mM MES, 50 mM Tris base, 0.1% SDS, 1 mM EDTA, pH 7.3; Thermo Fisher Scientific); in vitro APC/C ubiquitination assays determining KM—165V, 1 h, SDS-MOPS running buffer (50 mM MOPS, 50 mM Tris base, 0.1% SDS, 1 mM EDTA, pH 7.7; Thermo Fisher Scientific); pull-down binding assay—165 V, 35 min, SDS-MES running buffer.
APC/C-dependent ubiquitination reactions were performed at 30° C. in 30 mM HEPES pH 7.4, 175 mM NaCl, 8 mM MgCl2, 0.05% Tween-20, 1 mM DTT and 5% glycerol and contained 20 nM recombinant APC/C (note, for testing the first generation of inhibitors, APC/C and Cdc20 immunoprecipitated from mitotic HeLa K cells was used), 340 nM Cdc20, 46 nM GST-UBA1, 340 nM UBE2C (alternatively 400 nM UBE2D1, 280 nM UBE2S), 21 μM His6-ubiquitin or if it is indicated 21 μM methylated-ubiquitin (BostonBiochem), 2.6 mM ATP, 10 mM phosphocreatine and 11 μM creatine kinase. As substrates, 35 nM fluorophore-labeled ubiquitin-cyclin B and 50 nM fluorophore-labeled securin were standardly used (fluorophore IRDye 800CW (LI-COR) was used for labelling). In case of KM and kcat determination, 50, 100, 250, 500, 750, 1000, 1250, 2500 and 5000 nM fluorophore-labelled securin was used. The reaction was done in the volume of 15 μl, it was quenched after the indicated time with LDS sample buffer (Thermo Fisher Scientific) supplemented with 100 mM DTT and subjected to SDS-PAGE. Detection of fluorescently labelled substrates was done by quantitative near-infrared scanning system Odyssey.

hTERT RPE-1 cells = test: Live cell imaging of hTERT RPE-1 cells; assay type: cell-based; conditions: hTERT RPE-1, 100 μM, imaged 12-24 h
Procedure: (§1) Automated time-lapse microscopy was performed using ImageXpress Micro XLS wide-field screening microscope (Molecular Devices) equipped with a 10×, 0.5 NA., 20×, 0.7 NA, and 40×, 0.95 NA Plan Apo air objectives (Nikon), a laser-based autofocus and a full environmental control (5% CO2, 37° C.). Cells were grown in 96-well plastic bottom plates (clear, Greiner Bio-One) and for live cell imaging media was changed to DMEM without phenol red and riboflavin (Thermo Fisher Scientific), supplemented with 10% (v/v) FBS, 1% (v/v) Glutamax, 1% (v/v) penicillin-streptomycin, and 0.5 μg/ml amphotericin B.
(§2) hTERT RPE-1 cells were seeded into 96-well plates (5000 cells) one day prior the treatment with compounds of the invention. Cells were treated with 100 μM of compound G2-6 and the negative control molecule G2-N2 and cell division was monitored by live cell imaging using ImageXpress Micro XLS wide-field screening microscope, images were acquired every 3 min for time courses of 12-24 h. The length of mitosis was determined manually.

HeLa K cells = test: Live cell imaging of HeLa K cells; assay type: cell-based, human; conditions: 50 μM
Procedure: as §1
as §2, with “HeLa K” for “hTERT RPE-1”, “(4000-4500” for “(5000”, “50” for “100”, “G3_mod1_mini PEG” for “G2-6 and the negative control molecule G2-N2”, “48” for “12-24”
(§3) Automated time-lapse microscopy was performed using ImageXpress Micro XLS wide-field screening microscope (Molecular Devices) equipped with a 10×, 0.5 NA., 20×, 0.7 NA, and 40×, 0.95 NA Plan Apo air objectives (Nikon), a laser-based autofocus and a full environmental control (5% CO2, 37° C.). Cells were grown in 96-well plastic bottom plates (clear, Greiner Bio-One) and for live cell imaging media was changed to imaging media. Imaging media for A549, HeLa K and SW480 was DMEM without phenol red and riboflavin (Thermo Fisher Scientific), supplemented with 10% (v/v) FBS, 1% (v/v) Glutamax, and 1% (v/v) penicillin-streptomycin; imaging media for HT-1080 and RKO was RPMI 1640 without phenol red (Thermo Fisher Scientific), supplemented with 10% (v/v) FBS, and 1% (v/v) penicillin-streptomycin.
(§4) A549 (5000-5500 cells), HeLa K (3000-4000 cells), HT-1080 (4000 cells), RKO (5000 cells), and SW480 (7000-8000 cells) cells were seeded into 96-well plates one day prior to treatment with compounds of the invention. Cells were treated with 50 μM of compound G3_mod1_mini PEG and cell division was monitored by live cell imaging using an ImageXpress Micro XLS wide-field screening microscope and images were acquired every 3 min for time courses of 24 h. The length of mitosis was determined manually.

A549 cells = test: Live cell imaging of A549 cells; assay type: cell-based, human; conditions: A549, 50 μM, imaged 24 h
Procedure: as §3, §4

HT-1080 cells = test: Live cell imaging of HT-1080 cells; assay type: cell-based, human; conditions: HT-1080, 50 μM, imaged 24 h
Procedure: as §3, §4

RKO cells = test: Live cell imaging of RKO cells; assay type: cell-based, human; conditions: 50 μM, imaged 24 h
Procedure: as §3, §4

SW480 cells = test: Live cell imaging of SW480 cells; assay type: cell-based, human; conditions: SW480, 50 μM, imaged 24 h
Procedure: as §3, §4

APC/C (APC11) = biological target: T2, APC/C (APC11) (Homo sapiens, UniProt Q9NYG5); test: Pull-down binding assay in HeLa K cell extract, APC/C; conditions: Pra peptide clicked to azide agarose or magnetic beads, Western blot
T2 construct: endogenous in cells; host or cells: HeLa K cell extract
Procedure: (§5) For the protein transfer, the 0.45 μm Immobilon-FL PVDF membrane (Merck Millipore) was used. The membrane was activated in ethanol and then transferred to the Blotting buffer (50 mM SDS-MOPS, 50 mM Tris base, 0.1% SDS, 1 mM EDTA, 20% EtOH). The proteins were transferred using a wet transfer for 1.5 h at 400 mA. Subsequently, the membrane was incubated with the blocking solution, 10% milk in PBS-T (0.02% Tween-20 in PBS), for 1 h at room temperature. To detect proteins of the interest, the membrane was incubated with primary antibodies overnight at 4° C. Followed by washing the membrane 3 times 10 min with PBS-T and incubation with IRDye fluorescently labelled secondary antibodies for 1 h. Prior detection, the membrane was twice washed with PBS-T for 10 min and once with PBS for 10 min. The detection was done using the quantitative near-infrared scanning system Odyssey (LI-COR Biosciences).
HeLa K cell pellet was re-suspended in the extraction buffer (30 mM HEPES pH 7.5, 175 mM NaCl, 2.5 mM MgCl2, 0.25% NP40, 10% glycerol, 1 mM DTT) supplemented with 10 μM MG132 (VWR), 1 mM PMSF (Sigma-Aldrich), complete protease inhibitor cocktail (Roche) and PhosSTOP phosphatase inhibitors (Roche) and incubated for 20 min on ice, followed by centrifugation of cell debris for 15 min at 4° C. 16 100 g. In mean time, inhibitor molecules containing Propargyl (Pra) chemical group were covalently attached to the azide agarose or azide magnetic resin (Jena Bioscience) by Cu(I)-catalysed azide-alkyne cycloaddition reaction. Specifically, the inhibitor molecules were mixed with azide agarose resin in ratio 0.125 μmol inhibitor/25 μl agarose resin and azide magnetic resin in ratio 0.018 μmol inhibitor/20 μl magnetic resin. The reaction was catalysed by 1 mM CuSO4, 0.1 mM TBTA (Sigma-Aldrich) and 1 mM Sodium ascorbate and was performed on the rotating wheel for 30 min at room temperature in the volume of 1 ml. Subsequently, the resin was washed 5 times with the extraction buffer. The inhibitor-agarose resin was added to 1 mg of HeLa K cell extract and the inhibitor-magnetic resin was added to 0.5 mg of HeLa K cell extract followed by incubation at 4° C. for 2 h. Followed by washing the resin 5 times with the extraction buffer. Pull-down proteins were eluted by boiling for 15 min with 1×LDS sample buffer supplemented with 100 mM DTT (agarose resin) or by incubation with 1×LDS sample buffer for 10 min at room temperature followed by taking supernatant that was supplemented with 100 mM DTT and boiling it for 10 min. Samples were subjected to SDS PAGE and Western blot analysis.
HeLa K cell pellet was re-suspended in the extraction buffer (30 mM HEPES pH 7.5, 175 mM NaCl, 2.5 mM MgCl2, 0.25% NP40, 10% glycerol, 1 mM DTT supplied with complete protease inhibitor cocktail (Roche), PhosSTOP phosphatase inhibitors (Roche), 1 mM PMSF, 10 μM MG132) and incubated for 20 min on ice, followed by centrifugation to clear the lysate for 15 min at 4° C. 16,100 g. In the meantime, inhibitor molecules containing the propargyl-Gly-OH (Pra) chemical group were covalently attached to the azide agarose resin (Jena Bioscience) by Cu(I)-catalysed azide-alkyne cycloaddition reaction. Specifically, the inhibitor molecules were mixed with azide agarose resin in ratio 0.125 μmol inhibitor/20 μl agarose resin. The reaction was catalysed by 0.1 mM CuSO4, 0.5 mM THPTA (Sigma-Aldrich) and 5 mM Sodium ascorbate and was performed on the rotating wheel for 30 min at room temperature in the volume of 1 ml. […]

Cullin 1 = biological target: T3, Cullin 1 (Homo sapiens, UniProt Q13616); test: Pull-down binding assay in HeLa K cell extract, Cullin 1; conditions: azide beads, Western blot
T3 construct: endogenous in cells; host or cells: HeLa K cell extract
T3 sequence (Q13616 whole entry): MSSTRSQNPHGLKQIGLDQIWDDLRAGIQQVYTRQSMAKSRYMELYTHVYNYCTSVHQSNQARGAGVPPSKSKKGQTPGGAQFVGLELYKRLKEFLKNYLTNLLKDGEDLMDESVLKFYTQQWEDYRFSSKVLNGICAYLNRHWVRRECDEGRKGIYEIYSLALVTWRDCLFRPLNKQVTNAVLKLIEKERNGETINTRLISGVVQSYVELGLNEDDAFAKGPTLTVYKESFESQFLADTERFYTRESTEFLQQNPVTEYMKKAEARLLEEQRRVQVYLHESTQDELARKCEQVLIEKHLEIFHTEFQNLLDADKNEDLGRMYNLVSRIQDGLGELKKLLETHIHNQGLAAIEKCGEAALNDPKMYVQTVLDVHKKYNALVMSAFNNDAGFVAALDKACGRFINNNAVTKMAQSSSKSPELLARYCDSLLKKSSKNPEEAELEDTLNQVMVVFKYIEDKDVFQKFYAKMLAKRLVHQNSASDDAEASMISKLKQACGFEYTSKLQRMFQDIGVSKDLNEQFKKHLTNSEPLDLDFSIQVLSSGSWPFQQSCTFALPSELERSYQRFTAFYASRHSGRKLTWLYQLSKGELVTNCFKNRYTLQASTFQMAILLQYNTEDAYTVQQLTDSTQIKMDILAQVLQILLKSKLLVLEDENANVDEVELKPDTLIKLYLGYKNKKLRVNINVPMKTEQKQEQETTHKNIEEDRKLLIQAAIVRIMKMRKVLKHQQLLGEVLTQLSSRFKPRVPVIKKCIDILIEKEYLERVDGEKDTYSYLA
Procedure: as §5
(§6) HeLa K cell pellet was re-suspended in the extraction buffer (30 mM HEPES pH 7.5, 175 mM NaCl, 2.5 mM MgCl2, 0.25% NP40, 10% glycerol, 1 mM DTT) supplemented with 10 μM MG132 (VWR), 1 mM PMSF (Sigma-Aldrich), complete protease inhibitor cocktail (Roche) and PhosSTOP phosphatase inhibitors (Roche) and incubated for 20 min on ice, followed by centrifugation of cell debris for 15 min at 4° C. 16 100 g. […]

RBX1 = biological target: T4, RBX1 (Homo sapiens, UniProt P62877); test: Pull-down binding assay in HeLa K cell extract, RBX1; conditions: azide beads, Western blot
T4 construct: endogenous in cells; host or cells: HeLa K cell extract
T4 sequence (P62877 whole entry): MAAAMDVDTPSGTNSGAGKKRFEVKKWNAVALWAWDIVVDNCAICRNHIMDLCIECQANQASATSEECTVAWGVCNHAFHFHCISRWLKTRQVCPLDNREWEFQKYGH
Procedure: as §5, §6

cyclo(1,14)-[L 2-NaI L W K W E W E K R K p P] (cyclo(L[2Nal]LWKWEWEKRK[dP]P); SMILES CC(C)C[C@@H]1NC(=O)[C@H](Cc2ccc3ccccc3c2)NC(=O)[C@H](CC(C)C)NC(=O)[C@@H]2CCCN2C(=O)[C@H]2CCCN2C(=O)[C@H](CCCCN)NC(=O)[C@H](CCCNC(=N)N)NC(=O)[C@H](CCCCN)NC(=O)[C@H](CCC(=O)O)NC(=O)[C@H](Cc2c[nH]c3ccccc23)NC(=O)[C@H](CCC(=O)O)NC(=O)[C@H](Cc2c[nH]c3ccccc23)NC(=O)[C@H](CCCCN)NC(=O)[C@H](Cc2c[nH]c3ccccc23)NC1=O) [G2-6]
inhibition of APC/C activity in vitro (ubiquitinated securin) (APC/C): the most potent molecule from item (f); also recorded: inhibit APC/C in vitro the most effectively compared to other molecules of item (f) | cell fate (cell death) (hTERT RPE-1 cells): causes cell death; also recorded: mitotic or subsequent cell death | effect on mitosis (length of mitosis) (hTERT RPE-1 cells): prolongs mitosis; also recorded: causes prolonged mitosis

Ac-GFWFG-NH(CH2)2OCH2CO-cyclo(4,11)-EWWZIKEIQRXRRA-NH2 ({Ac-Gly-Phe-Trp-Phe-Gly-miniPEG}-EWW[R8]IKEIQR[S5]RRA-NH2; staple 4-11) [G3-6_mod1_miniPEG]
cell fate (cell death) (HeLa K cells; imaged 24 h): cause cell death after a metaphase arrest in a subpopulation | effect on mitosis (length of mitosis) (HeLa K cells; imaged 24 h): prolongs mitosis | cell fate (cell death) (HeLa K cells; imaged 48 h): causes cell death after metaphase | effect on mitosis (length of mitosis) (HeLa K cells; imaged 48 h): prolongs mitosis by arresting cells in metaphase; also recorded: induces a metaphase delay | effect on mitosis (length of mitosis) (A549 cells): prolongs mitosis | cell fate (cell death) (HT-1080 cells): cause cell death after a metaphase arrest in a subpopulation | effect on mitosis (length of mitosis) (HT-1080 cells): prolongs mitosis | effect on mitosis (length of mitosis) (RKO cells): prolongs mitosis | cell fate (cell death) (SW480 cells): cause cell death after a metaphase arrest in a subpopulation | effect on mitosis (length of mitosis) (SW480 cells): prolongs mitosis

Ac-cyclo(4,11)-EWPraZIKEIQRXRRA-NH2 (Ac-EW[Pra][R8]IKEIQR[S5]RRA-NH2; staple 4-11; SMILES C#CC[C@H](NC(=O)[C@H](Cc1c[nH]c2ccccc12)NC(=O)[C@H](CCC(=O)O)NC(C)=O)C(=O)N[C@]1(C)CCCCCCC=CCCC[C@@](C)(C(=O)N[C@@H](CCCNC(=N)N)C(=O)N[C@@H](CCCNC(=N)N)C(=O)N[C@@H](C)C(N)=O)NC(=O)[C@H](CCCNC(=N)N)NC(=O)[C@H](CCC(N)=O)NC(=O)[C@H]([C@@H](C)CC)NC(=O)[C@H](CCC(=O)O)NC(=O)[C@H](CCCCN)NC(=O)[C@H]([C@@H](C)CC)NC1=O) [G3-6Pra]
binding to the APC/C (pull-down) (APC/C (APC11)): binds to the APC/C | binding to Cullin 1 (pull-down) (Cullin 1): does not bind | binding to RBX1 (pull-down) (RBX1): does not bind
